Source: the supplement of paper PMC11424490

Legend:
NCI-H2122 [1] = test: relative IC50 of cell viability (CellTiter-Glo); higher = less potent
How it was run: (§1)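 Viability was measured by CellTiter-Glo luminescence after 72 h of compound exposure for NCI-H2122 and NCI-H358 or 144 h for SW837, and normalised to DMSO controls as percent of control. Relative IC50, averaged across replicates, and the lower plateau were taken from a four-parameter nonlinear fit.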

NCI-H358 [2] = test: as above
How it was run: as §1

SW837 [3] = test: as above
How it was run: as §1

NCI-H2122 [4] = test: fitted bottom plateau of viability curve, % of DMSO control; higher = less maximal inhibition; extreme values may be limits of the assay
How it was run: as §1

NCI-H358 [5] = test: as above
How it was run: as §1

SW837 [6] = test: as above
How it was run: as §1

SMILES	relative IC50 of cell viability (NCI-H2122 [1])	relative IC50 of cell viability (NCI-H358 [2])	relative IC50 of cell viability (SW837 [3])	fitted bottom plateau of viability curve (NCI-H2122 [4])	fitted bottom plateau of viability curve (NCI-H358 [5])	fitted bottom plateau of viability curve (SW837 [6])
CCS(=O)(=O)Nc1ccc2c(c1)/C(=C(/Nc1ccc(CN3CCCCC3)cc1)c1ccccc1)C(=O)N2 [Hesperadin] (top concentration tested 10000 nM)	19 nM	43.7 nM	366 nM	5.85%	0%	0%
CN(C)C/C=C/C(=O)Nc1cc2c(Nc3ccc(F)c(Cl)c3)ncnc2cc1O[C@H]1CCOC1 [Afatinib] (top concentration tested 10000 nM)	1220 nM	176 nM	5660 nM	2.68%	0%	0%
COc1ncc(-c2ccc3nccc(-c4ccnnc4)c3c2)cc1NS(=O)(=O)c1ccc(F)cc1F (top concentration tested 50000 nM)	43.6 nM	32.3 nM	677 nM	2.3%	0.391%	3.09%
COc1cc(Nc2ncc(F)c(Nc3ccc4c(n3)N(COP(=O)(O)O)C(=O)C(C)(C)O4)n2)cc(OC)c1OC [Fostamatinib] (top concentration tested 9999.9 nM)	8750 nM	2060 nM	1680 nM	37.4%	0%	47.6%
Cc1c(N)nc([C@H](CC(N)=O)NC[C@H](N)C(N)=O)nc1C(=O)N[C@H](C(=O)N[C@H](C)[C@@H](O)[C@H](C)C(=O)N[C@H](C(=O)NCCc1nc(-c2nc(C(=O)NCCC[S+](C)C)cs2)cs1)[C@@H](C)O)[C@@H](OC1OC(CO)C(O)C(O)C1OC1OC(CO)C(O)C(OC(N)=O)C1O)c1cnc[nH]1 (stereo not given in full) [Bleomycin] (top concentration tested 10000 nM)	1200 nM	1380 nM	438 nM	45.4%	12.7%	4.05%
COc1cc(Nc2c(C#N)cnc3cc(OCCCN4CCN(C)CC4)c(OC)cc23)c(Cl)cc1Cl [Bosutinib] (top concentration tested 10000 nM)	3830 nM	1510 nM	4350 nM	23.5%	25.5%	12.1%
Nc1cc(C(F)(F)F)c(-c2cc(N3CCOCC3)nc(N3CCOCC3)n2)cn1 [BKM120] (top concentration tested 10000 nM)	921 nM	1310 nM	1790 nM	3.49%	7.46%	20.6%
C=CC(=O)N1CCN(c2nc(=O)n(-c3c(C)ccnc3C(C)C)c3nc(-c4c(O)cccc4F)c(F)cc23)[C@@H](C)C1 [AMG510 / Sotorasib] (top concentration tested 1000 nM)	43 nM	20.4 nM	57.7 nM	12%	2.09%	39.6%
Cc1cc(C)c(CNC(=O)c2cc(-c3ccc(N4CCNCC4)nc3)cc3c2c(C)cn3C2CCCC2)c(=O)[nH]1 (top concentration tested 50000 nM)	17400 nM	11500 nM	10500 nM	24.3%	0.467%	0.31%
O=C1c2c(O)ccc(O)c2C(=O)c2c(NCCNCCO)ccc(NCCNCCO)c21 [Mitoxantrone] (top concentration tested 999.98 nM)	62.4 nM	19.9 nM	79.2 nM	28.7%	7.11%	0%
